From article PMC12670400, “LEKTI-Grafted Sunflower Trypsin Inhibitor: A Potential Therapeutic for Skin Diseases” (Journal of Medicinal Chemistry, 2025) come the findings set out here.

One data set addresses T1, KLK5 (Homo sapiens, UniProt Q9Y337).
T1 construct: purchased R&D Systems 1108-SE
T1 sequence (Q9Y337 23-293): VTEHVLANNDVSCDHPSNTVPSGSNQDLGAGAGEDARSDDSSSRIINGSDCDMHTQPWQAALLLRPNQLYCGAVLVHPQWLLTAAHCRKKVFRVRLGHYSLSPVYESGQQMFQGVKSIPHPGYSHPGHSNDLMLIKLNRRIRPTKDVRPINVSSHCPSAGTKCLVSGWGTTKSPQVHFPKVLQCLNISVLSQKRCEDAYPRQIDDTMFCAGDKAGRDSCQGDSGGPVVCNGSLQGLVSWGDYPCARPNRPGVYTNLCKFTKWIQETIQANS
The data set can be described thus: Protease activity assay: inhibition of recombinant KLK5 (Boc-VPR-AMC substrate). It is filed as biochemical. As to the method:
Inhibitory activity against KLK5 was evaluated using the fluorogenic substrate Boc-VPR-AMC for KLK5 (Table ). […] The P1–P1′ reactive site (Arg5 to Ser6) is critical for inhibitor binding, with the P1′ position contributing up to 50% of the total association energy. , The conserved serine at P1′ in Bowman-Birk inhibitors (BBIs) is essential for function. […] Preservation of serine in the P1′ position restored inhibitory activity seen in 5 and 6. Preserving the native serine restored efficacy to the nanomolar range (5: 31 ± 7 nM; 6: 114 ± 11 nM).
Methods for biological experiment
SFTI analogues were created by individual amino acid substitutions in PYMOL (Python Molecular Graphics System) using the existing solution NMR structure of native SFTI - 1 (1JBL) found in the RCSB (Research Collaboratory for Structural Bioinformatics) database. Residues of 2 were mutated as follows: L5R, I10H, and F12W with conserved SFTI-1 backbone structure. Other SFTI based analogues were further modified using PYMOL. Currently, there are no SFTI-1 and Kallikrein 5 co-crystal structures found in the RCSB database. Superimposing the existing crystal structure of SFTI-1 and Trypsin complex (4XOJ) with Kallikrein 5 crystal structure (2PSX) was performed with PYMOL. Ab-initio docking between KLK5 and 2 were performed with HADDOCK 2.4 1, 2, with binding active site parameter set to Arg2, Cys3, Thr4, Arg5, Ser6 for 2 and Ser195, His57, and Asp102 for KLK5 catalytic triad. PRODIGY 3-5, set at 25 °C, was used to predict dissociation constant and binding interactions of docked clusters. Structural visualization and alignment were performed with PYMOL 6, and comparative sequence analysis was performed with MEGA11 7.
A fluorescence spectrometer using SpectraMax® i3x plate reader (Molecular Devices, United States) was used to measure the relative fluorescence unit (RFU) on a 96-well black microplate (Grenier Bio-one, cat no. 655074). The wavelengths were set to 360/460 nm (excitation/emission) for the substrate Boc-VPR-AMC (Bachem AG, cat no. 4003460) and 320/405nm for the substrate Mca-RPKPVE-Nval-WRK(Dnp)-NH2 Fluorogenic MMP Substrate (R&D Systems Biotechne, cat no.ES002). The Boc-VPR-AMC stock solution was prepared by dissolving the solid form in dimethyl sulfoxide to 100 mM. Mca-RPKPVE-Nval-WRK(Dnp)-NH2 fluorogenic MMP Substrate is supplied as stock solution at 10.0 mg/mL in dimethyl sulfoxide. Boc-VPR-AMC was used as a substrate for KLK5, 8 and 14. Mca-RPKPVE-Nval-WRK(Dnp)-NH2 was used as a substrate for KLK7. The ligand-only solution serves as a negative control (minimum RFU, 100% inhibition), and enzyme-only was served as positive (maximum RFU, 0% inhibition). The activities of proteases were measured and readout against the standard curve made in serial dilutions of tested recombinant KLKs, ranging from 0nM to 60nM. Each assay was done in triplicates and repeated at least for three times […]
Assessment of analogue mediated inhibition of KLK5, KLK7, KLK8, and KLK14 […]
Recombinant KLK5 (R&D Systems, cat no. 1108-SE) was diluted to a final concentration of 10 nM in 1X PBS (pH 8.0). KLK5 was pre -incubated on ice for 1 hour with serial dilutions of SFTI-derived analogues to assess inhibitory activity. After incubation, 20 µL of each mixture was transferred to we lls of a 96-well microplate in triplicates. The enzymatic reaction was initiated by adding 100 µL of Boc -VPR-AMC substrate (final concentration 100 µM) to each well. Fluorescence (RFU) was measured using a SpectraMax® i3x plate reader with chamber temperature maintained at 37°C. Readings were started at 0 minutes (baseline) and another […]
Recombinant KLK7 (R&D Systems , cat no. 2624-SE) and KLK14 (R&D Systems, cat no. 2664-SE) were activated by adding 1 mM CaCl ₂ 0.05% v/v Brij-35 (Sigma, cat no. […]
incubated at 37°C for 1 hour. Reactions were stopped by adding EDTA to a final concentration of 50 mM (Sigma, cat no. EDS-100G) KLK8 (catalytic domain only; R&D Systems, cat no. 2025-SE-010) was activated separately with 11 nM lysyl […]

The conditions of data set [1]: amide bond, 42-membered ring, then NH4HCO3 air oxidation, 2 steps.
Data set [2] has as its target Kallikrein-related peptidase 5 (KLK5) (UniProt Q9Y337 23-293). The data set can be described thus: enzyme inhibition assay (fluorogenic substrate); inhibition of KLK5 activity by the peptide, fluorogenic substrate Boc-VPR-AMC, n = 3; conditions in the Supporting Information. The conditions noted are these: both partners purified.
For the next data set, the target named is T2, KLK8 (UniProt O60259 33-260).
T2 construct: Kallikrein 8 (KLK8); construct and source are in the Supporting Information
T2 sequence (looked up): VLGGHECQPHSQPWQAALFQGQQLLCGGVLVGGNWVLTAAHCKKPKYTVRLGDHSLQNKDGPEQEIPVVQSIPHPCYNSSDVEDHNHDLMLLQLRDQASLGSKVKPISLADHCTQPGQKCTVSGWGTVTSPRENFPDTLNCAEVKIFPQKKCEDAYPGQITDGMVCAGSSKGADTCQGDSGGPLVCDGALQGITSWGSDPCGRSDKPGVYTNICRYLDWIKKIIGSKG
Briefly: enzyme inhibition assay (fluorogenic substrate); selectivity: inhibition of KLK7, KLK8 or KLK14 activity by the peptide, n = 3; substrates and conditions in the Supporting Information. The conditions noted are these: both partners purified.

In a further data set the target is T3, KLK14 (UniProt Q9P0G3).
T3 sequence (Q9P0G3 41-267, species assumed, looked up): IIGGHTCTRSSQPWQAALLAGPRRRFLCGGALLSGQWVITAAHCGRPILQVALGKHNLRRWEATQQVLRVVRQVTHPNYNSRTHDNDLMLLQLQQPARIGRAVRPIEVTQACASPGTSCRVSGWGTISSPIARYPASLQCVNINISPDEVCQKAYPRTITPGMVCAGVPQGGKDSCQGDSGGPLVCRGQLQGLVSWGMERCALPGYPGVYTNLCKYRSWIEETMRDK
The description is as above.

For the next data set, the target named is KLK7 (Homo sapiens, UniProt P49862). Described as above.
Where [3] appears, read: MESNa/TCEP (N-to-S acyl shift, NCL), 0.1 M sodium phosphate pH 5.8, 50.0 °C.
Setting [4] is: NaNO2, MPAA (NCL), TCEP, 6 M guanidinium chloride buffer, 1.0 mM, 25.0 °C.

Like-named read-outs stand apart in the source and are kept apart here. Bridge positions count the residues as written; N and C are the ends. Peptide text beside a SMILES is read from it. Bounds are passed on as bounds.

As for `CC[C@H](C)[C@@H]1NC(=O)[C@H](CO)NC(=O)[C@H](CCCNC(=N)N)NC(=O)[C@H]([C@@H](C)O)NC(=O)[C@@H]2CSSC[C@H](NC(=O)[C@H](Cc3c[nH]cn3)NC(=O)[C@@H]3CCCN3C(=O)[C@@H]3CCCN3C1=O)C(=O)N[C@@H](Cc1c[nH]c3ccccc13)C(=O)N1CCC[C@H]1C(=O)N[C@@H](CC(=O)O)C(=O)NCC(=O)N[C@@H](CCCNC(=N)N)C(=O)N2` [compound 2] (cyclo(CTRSIPPHCWPDGR); disulfide 1-9), at KLK5 (n = 3, 10 nM KLK5, Boc-VPR-AMC 100 µM, PBS pH 8.0, read-out: IC50 (n = 3)/nM for KLKs: KLK5), the IC50 turned out to be 54 ± 3 nM.

Turning to `N=C(N)NCCC[C@@H]1NC(=O)[C@H](Cc2c[nH]cn2)NC(=O)[C@@H]2CSSC[C@H](NC(=O)[C@H](CCC(=O)O)NC(=O)[C@@H]3CCCN3C(=O)[C@@H]3CCCN3C(=O)[C@H](Cc3ccc(O)cc3)NC(=O)[C@H](CO)NC1=O)C(=O)N[C@@H](Cc1c[nH]c3ccccc13)C(=O)N1CCC[C@H]1C(=O)N[C@@H](CC(N)=O)C(=O)NCC(=O)N[C@@H](Cc1ccccc1)C(=O)N2` [compound 8], at KLK5 (ratio of IC50 values), the “increase in KLK5 inhibitory potency (IC50) compared to 2” value came to 7 fold and the “increase in KLK5 inhibitory potency (IC50) relative to 1” value is 28 fold.

Turning to GFCHREYPPHCWPN, the ring closure, yield after HPLC in data set [1] (setting [3]) stood at 18%.

Turning to GFCHRSYPPECWPN, in data set [1] (setting [4]), the ring closure, yield after HPLC came to 6%.

In the case of GFCHRSYPPHCWPN, the ring closure, yield after HPLC in data set [1] (setting [3]) was 15%.

Consider GFCTRENPPHCWPN, for which the ring closure, yield after HPLC in data set [1] (setting [3]) is 14%.

Consider GFCTRSNPPECWPN, for which, in data set [1] (setting [4]), the ring closure, yield after HPLC came out at 8%.

For the molecule GFCTRSNPPHCWPN, in data set [1] (setting [3]), the ring closure, yield after HPLC was determined as 15%.

On to GRCTRSIPPHCWPD, for which the ring closure, yield after HPLC in data set [1] (setting [3]) stood at 18%.

GSCTRSSPPECWPN registered a ring closure, yield after HPLC in data set [1] (setting [4]) of 9%.

Regarding GYCTRSSPPECWPN, in data set [1] (setting [4]), the ring closure, yield after HPLC was determined as 12%.

B1: SFTI analogue 3 (peptide)
peptide: cyclo(GFCTRENPPHCWPN)
modifications: disulfide 3-11 (inferred)
notes: scaffold of analogue 2 grafted with residues of a LEKTI domain; source: synthetic peptide (Fmoc solid-phase synthesis, cyclised via N to S acyl shift, oxidised, RP-HPLC purified)
In the case of B1, in data set [2], the IC50 stood at 1800 ± 58 nM.

B2: SFTI-1 triple mutant 2, cyclo-[GRCTRSIPPHCWPD] (peptide)
peptide: cyclo(GRCTRSIPPHCWPD)
modifications: disulfide 3-11 (inferred)
notes: numbers count on: the mature 14-residue cyclic peptide; source: synthetic peptide (Fmoc solid-phase synthesis, cyclised via N to S acyl shift, oxidised, RP-HPLC purified)
In the data set with KLK8, B2 displayed an IC50 of 373 ± 31 nM.

B3: SFTI analogue 5 (peptide)
peptide: cyclo(GFCTRSNPPHCWPN)
modifications: disulfide 3-11 (inferred)
notes: scaffold of analogue 2 grafted with residues of a LEKTI domain, serine kept at P1'; source: synthetic peptide (Fmoc solid-phase synthesis, cyclised via N to S acyl shift, oxidised, RP-HPLC purified)
In turn, B3 had an IC50 in data set [2] of 31 ± 7 nM.

B4: SFTI analogue 9 (peptide)
peptide: cyclo(GSCTRSSPPECWPN)
modifications: disulfide 3-11 (inferred)
notes: SFTI scaffold grafted with residues of a further LEKTI domain, glutamic acid at position 10; source: synthetic peptide (hydrazide peptide, cyclised via native chemical ligation, oxidised, RP-HPLC purified)
As for B4, the IC50 with KLK14 and with KLK8 was above 1000 nM in each case.

B5: SFTI analogue 10 (peptide)
peptide: cyclo(GYCTRSSPPECWPN)
modifications: disulfide 3-11 (inferred)
notes: as for B4
With B5, the IC50 with KLK14 and in the data set with KLK8 was above 1000 nM throughout.

B6: SFTI analogue 6 (peptide)
peptide: cyclo(GFCHRSYPPHCWPN)
modifications: disulfide 3-11 (inferred)
notes: scaffold of analogue 2 grafted with residues of a LEKTI or LEKTI-like domain, serine kept at P1'; source: synthetic peptide (Fmoc solid-phase synthesis, cyclised via N to S acyl shift, oxidised, RP-HPLC purified)
B6: the IC50 in data set [2] came to 114 ± 11 nM.

B7: SFTI-1 triple mutant 2, cyclo-[…] (peptide)
peptide: cyclo(GRCTRSIPPHCWPD)
modifications: disulfide 3-11 (inferred)
Consider B7, for which the IC50 with KLK14 was 24 nM; with KLK7 it was 534 nM.

B8: SFTI analogue 4 (peptide)
peptide: cyclo(GFCHREYPPHCWPN)
modifications: disulfide 3-11 (inferred)
notes: scaffold of analogue 2 grafted with residues of a LEKTI or LEKTI-like domain; source: synthetic peptide (Fmoc solid-phase synthesis, cyclised via N to S acyl shift, oxidised, RP-HPLC purified)
For B8, the IC50 in data set [2] was 1490 ± 50 nM.
